Test results taken from ChEMBL document CHEMBL1147362, “Cytotoxicity of Hymenocallis expansa alkaloids” (1993).
In brackets after ≈: the same amount, converted by molar mass.

Columns and labels:
Type in all cases: functional
SK-MEL-2 = experiment: Cytotoxicity against human SK-MEL-2 cells after 3 days by sulforhodamine B assay; settings: SK-MEL-2, 72 h, read-out: ED50 (the source's name)
KB = experiment: Cytotoxicity against human KB cells after 3 days by sulforhodamine B assay; settings: 72 h, read-out: ED50 (the source's name)
Lu1 = experiment: Cytotoxicity against human Lu1 cells after 3 days by sulforhodamine B assay; settings: Lu1, 72 h, read-out: ED50 (the source's name)
LNCaP = experiment: Cytotoxicity against human LNCAP cells after 3 days by sulforhodamine B assay; settings: 72 h, read-out: ED50 (the source's name)
P388 = experiment: Cytotoxicity against mouse P388 cells after 3 days by sulforhodamine B assay; settings: P388, 72 h, read-out: ED50 (the source's name)
[1] = Cytotoxicity against human BC1 cells after 3 days by sulforhodamine B assay; settings: BC1, 72 h, read-out: ED50 (the source's name)
ZR-75-1 = experiment: Cytotoxicity against human ZR-75-1 cells after 3 days by sulforhodamine B assay; settings: ZR-75-1, 72 h, read-out: ED50 (the source's name)
HT = experiment: Cytotoxicity against human HT cells after 3 days by sulforhodamine B assay; settings: 72 h, read-out: ED50 (the source's name)
[2] = Cytotoxicity against human KBV1 cells after 3 days by sulforhodamine B assay; settings: KB-V1, 72 h, read-out: ED50 (the source's name)
Col2 = experiment: Cytotoxicity against human Col2 cells after 3 days by sulforhodamine B assay; settings: Col2, 72 h, read-out: ED50 (the source's name)
A-431 = experiment: Cytotoxicity against human A431 cells after 3 days by sulforhodamine B assay; settings: A-431, 72 h, read-out: ED50 (the source's name)

CN1CCC2=C[C@H](O)[C@H]3OC(=O)c4cc5c(cc4[C@H]3[C@@H]21)OCO5
EC50 (SK-MEL-2): > 20 µg/mL
EC50 (KB): > 20 µg/mL
EC50 (Lu1): 5.2 µg/mL (≈ 16.5 µM)
EC50 (LNCaP): 1.8 µg/mL (≈ 5.71 µM)
EC50 (P388): 4 µg/mL (≈ 12.7 µM)
EC50 [1]: > 20 µg/mL
EC50 (ZR-75-1): 7.3 µg/mL (≈ 23.2 µM)
EC50 (HT): 4.7 µg/mL (≈ 14.9 µM)
EC50 [2]: > 20 µg/mL
EC50 (Col2): 7.8 µg/mL (≈ 24.7 µM)
EC50 (A-431): 6.3 µg/mL (≈ 20 µM)

CO[C@@H]1C=C[C@@]23c4cc5c(cc4CO[C@]2(O)CN(C)[C@H]3C1)OCO5 [TAZETTINE]
EC50 (SK-MEL-2): 12.9 µg/mL (≈ 38.9 µM)
EC50 (KB): 7.3 µg/mL (≈ 22 µM)
EC50 (Lu1): 11.1 µg/mL (≈ 33.5 µM)
EC50 (LNCaP): 5.9 µg/mL (≈ 17.8 µM)
EC50 (P388): 1 µg/mL (≈ 3.02 µM)
EC50 [1]: > 20 µg/mL
EC50 (ZR-75-1): 6.9 µg/mL (≈ 20.8 µM)
EC50 (HT): 11.8 µg/mL (≈ 35.6 µM)
EC50 [2]: > 20 µg/mL
EC50 (Col2): 5 µg/mL (≈ 15.1 µM)
EC50 (A-431): 11.1 µg/mL (≈ 33.5 µM)

CO[C@@H]1C=C[C@@]23c4cc5c(cc4[C@H](O)N(C[C@@H]2O)[C@H]3C1)OCO5
EC50 (SK-MEL-2): 1.9 µg/mL (≈ 5.99 µM)
EC50 (KB): 3.6 µg/mL (≈ 11.3 µM)
EC50 (Lu1): 2.1 µg/mL (≈ 6.62 µM)
EC50 (LNCaP): 0.7 µg/mL (≈ 2.21 µM)
EC50 (P388): 0.4 µg/mL (≈ 1.26 µM)
EC50 [1]: > 20 µg/mL
EC50 (ZR-75-1): 2.6 µg/mL (≈ 8.19 µM)
EC50 (HT): 1.6 µg/mL (≈ 5.04 µM)
EC50 [2]: 8.4 µg/mL (≈ 26.5 µM)
EC50 (Col2): 6 µg/mL (≈ 18.9 µM)
EC50 (A-431): 3 µg/mL (≈ 9.45 µM)
